Assay results: article PMC4318582, “Chemotherapy of Second Stage Human African Trypanosomiasis: Comparison between the Parenteral Diamidine DB829 and Its Oral Prodrug DB868 in Vervet Monkeys” (PLoS Neglected Tropical Diseases, 2015)
Read-outs that look alike come from different tables or passages of the source.

Tests used:
[1] = tested on: T. b. rhodesiense STIB900; parameters: method as in PMID 19620327; conditions: read-out: in vitro IC50; cited from earlier work
[2] = CSF DB829 concentrations in infected vervet monkeys; assay type: in vivo, vervet monkey; conditions: for concentration at 1 h: 5 mg/kg/day, read-out: geometric mean CSF DB829 concentration
Text: Parasitaemia post-infection was monitored daily, using ear-prick capillary blood, through the completion of DB868 and DB829 treatment. […] At 300 days post-LDD, monkeys were considered cured if they remained normal clinically and parasite-free in the blood and CSF. Pharmacokinetic outcomes were monitored for a minimum of 60 days post-LDD as described previously. […] Monkeys that relapsed, characterized by trypanosome recrudescence in the blood or CSF, were rescue-treated with melarsoprol.
Plasma samples were processed for quantification of DB868 and DB829 by high performance liquid chromatography-tandem mass spectrometry (HPLC-MS/MS) as described previously. CSF samples were processed in a manner similar to that of plasma samples.

Compound: N=C(N)c1ccc(-c2ccc(-c3ccc(C(=N)N)cn3)o2)nc1 [DB829, 2,5-bis(5-amidino-2-pyridyl)furan]
- IC50 [1]: 14 nM
- CSF DB829 concentration ([2]; IM 2.5 mg/kg/day consecutive-day dose group, limit of quantification 5 nmol/L): < 5 nmol/L
- geometric mean CSF DB829 concentration ([2]; IM 5 mg/kg/day alternate-day dose group, 1 h post-LDD): ~7.3 nmol/L
- CSF DB829 concentration ([2]; IM 5 mg/kg/day consecutive-day dose group, by 28 days post-LDD): below the limit of quantification
- time DB829 CSF concentrations maintained above 5 nmol/L ([2]; IM 5 mg/kg/day regimens): 2–28 days post-LDD
- concentration at 1 h ([2]; monkey, CSF, intramuscular, IM 5 mg/kg/day alternate-day dose group, 1 h post-LDD): 7.3 nM
- concentration at 1 h ([2]; monkey, CSF, intramuscular, IM 5 mg/kg/day consecutive-day dose group, 1 h post-LDD): 14 nM
- Kp at 1 h ([2]; monkey, CSF, intramuscular, IM 5 mg/kg/day, either regimen, 1 h post-LDD, read-out: CSF concentration as share of total (bound + unbound) plasma concentration): ~0.001
- CSF DB829 concentration ([2]; monkeys treated with oral DB868): not quantifiable
